According to paper PMC6389928, “Biomolecular Interaction, Anti-Cancer and Anti-Angiogenic Properties of Cobalt(III) Schiff Base Complexes” (Scientific Reports, 2019):

Assays:
[1] = tested on: EB - DNA; assay: Competitive binding with ethidium bromide: fluorescence quenching of EB - DNA; settings: quenching of EB-DNA emission, F0/F vs [complex]/[DNA], λex 450 nm
Description: The complexes 1 and 2 are non-emissive in nature. […] In this study, changes in the intensity of the fluorescence emission band of EB - DNA complex were monitored after the addition of metal complexes 1 and 2 (Fig. 2). Upon increasing complex concentration in the DNA-EB solution, EB emission intensity was decreased. […] The resulting data (Table 1) of the complexes 1 and 2 with EB-DNA was processed from the standard Stern-Volmer equation[38], F0/F=1+Ksvr where F0 and F are the fluorescence emission intensities in the absence and presence of quencher (i.e. complexes 1 and 2), r is the ratio of concentration of the quencher. Ksv is the Stern-Volmer quenching constant.
For fluorescence quenching experiments, nucleic acids solution was pretreated with ethidium bromide (EB) for 30 min. Solutions of cobalt(III) complexes were then added to this mixture and their effect on the emission intensity was measured. The samples were excited at 450 nm and emission was observed between 500 and 750 nm.

[2] = tested on: CT-DNA; assay: Cyclic voltammetry in the absence and presence of CT-DNA; format: binding; settings: absence of DNA, 0.5% DMSO/PBS, glassy carbon vs saturated calomel; for cathodic peak potential Epc: Co(III) to Co(II)
Method: Electrochemical studies of complexes 1 and 2 were recorded in 0.5% DMSO/PBS buffer solution, with glassy carbon as working electrode vs saturated calomel as reference electrode and Pt wire as auxiliary electrode. […] On addition of CT-DNA to each cobalt complex solution, no new peak appeared. […] The decrease in voltammetric current in the presence of CT- DNA is possibly due to the diffusion of the complexes 1 and 2 bound to the large, slowly diffusing DNA molecule[39],[40]. The positive shifts indicate that complexes 1 and 2 bind to DNA through intercalation as observed in the spectroscopic studies[39],[40].
For cyclic voltammetry experiments, the electrode surfaces were freshly polished with alumina powder and then sonicated in ethanol and distilled water for 1 min prior to each experiment and the electrode was rinsed with doubly distilled water thoroughly between each polishing step. Finally, each electrode was cleaned thoroughly in an ultrasonic cleaner again with doubly distilled water. Cyclic voltammetric experiments were performed at room temperature in […] in a single compartment cell with a three-electrode configuration, namely, glassy carbon working electrode, platinum wire auxiliary electrode and saturated calomel as reference electrode. Before experiments, all solutions were deaerated with dry nitrogen gas for 10 min to remove dissolved oxygen and kept in nitrogen atmosphere throughout the experiments.

[3] = tested on: A549 lung carcinoma cell; assay: MTT assay on A549 cells; settings: A549 cell, 24 h
Description: The anti-proliferative property of the complexes 1 and 2 at different concentrations on A549 lung carcinoma cell and monkey kidney epithelial cell Vero was examined by adopting MTT assay (Fig. S7). […] The naked cobalt acetate and ligands salen and salophen were separately tested on A549 cells to understand if metal chelation is the principal basis of the anticancer activity of the complexes.
Culture: Human lung cancer cells (A549) were received from National Centre for Cell Science (NCCS) Pune, India. Vero cells were obtained from ATCC. The cells were grown at humidified atmosphere of 5% CO2 in an incubator at 37 °C (Forma, Thermo Scientific, USA) in DMEM medium (Invitrogen) containing 10% FBS (Sigma-Aldrich, St. Louis, Mo, USA), 100 μg/mL of penicillin and 100 μg/mL streptomycin were used as antibiotics (Himedia, Mumbai, India). […] The cells were seeded in 96 well plates (5000 A549 cells per well) and allowed to attach for 24 h. The cells were then incubated with different concentrations of the metal complexes 1 and 2 dissolved in 100% dimethyl sulfoxide (DMSO) (Sigma-Aldrich) and prepared to a final dilution of 0.02% of DMSO.
In the determination of IC50 value, 0.02% DMSO was used as the solvent control. After the end of incubation period (24 h), the medium was aspirated carefully and replaced with new medium. The formazan formed was dissolved in100 μL of 100% DMSO to each well. The absorbance was monitored at 570 nm using a 96 well plate reader (Bio-Rad, Hercules, California, USA). All experiments were repeated for a minimum of three times when each experiment was done in two replicates.

[4] = tested on: developing blood vessels of the chicken chorioallantoic membrane; assay: Chicken chorioallantoic membrane (CAM) assay; format: in vivo; settings: for inhibition of vessel formation: 10 µM on filter paper discs, end of incubation (6 h); for angiogenic parameters (vessel size, vessel length, number of vessel branches): 10 µM, angioquant software, compared to control
Method: Chicken chorioallantoic membrane (CAM) assay is a well-known in vivo angiogenesis assay. To confirm the anti-angiogenic properties of cobalt complexes 1 and 2, CAM assay was performed. The complexes 1 and 2, on incubation for […], produced excellent inhibitory activity on the developing blood vessels. […] Several angiogenic parameters such as vessel size, vessel length and number of vessel branches were quantified using angioquant software as practiced in an earlier study[77] and represented as bar diagram (Fig. 5). […] This trend is also in tune with the DNA binding ability and anti-cancer activity of the complexes 1 and 2.
The Institutional Animal Care and Use Committee, an Association of New England Medical Center and Tufts (IACUC) and the National Institute of Health, USA, had established that a chick embryo that has not reached the 14th day of its developmental period would not experience pain and can, therefore, be used for experimentation without any ethical restrictions or prior protocol approval[95]–[97]. The anti-angiogenic activity was investigated on adopting the Chicken chorioallantoic membrane (CAM) assay. Briefly, specific pathogen-free (SPF) fertile chicken eggs were obtained from a government poultry farm. The eggs were incubated at 37 °C in a humid atmosphere. On the 5th day of incubation, the shell was cautiously broken using forceps. Precautions were taken to prevent puncture of any of the blood vessels during the transfer. The stock solutions were prepared by dissolving the complexes 1 and 2 in DMSO and then diluted suitably with the corresponding buffer to the required concentrations for all the experiments. The final DMSO concentration never exceeded 0.1%. Sterile filter paper discs (6 mm dia) soaked in solution of complexes (10 µM) were placed in 3 different positions over the generating blood vessels. For the control experiments sterile filter paper disks (6 mm dia) soaked with 10 µM of 0.1% of DMSO in PBS were used. Images of blood vessels (i.e., 0 h) were taken using stereo microscope (Nexius Zoom). The eggs were aseptically transferred in a humidified incubator at 37 °C and images were captured after 6 h incubation.

For CCCCCCCCCCCC[NH2+][Co-3]123([NH2+]CCCCCCCCCCCC)[O]c4ccccc4C=[N+]1CC[N+]2=Cc1ccccc1[O]3.[O-][Cl+3]([O-])([O-])[O-] [Complex 1, trans-[Co(salen)(DA)2](ClO4)], the “Stern–Volmer constant (Ksv)” value [1] was 0.5694, the “cathodic peak current ipc” value [2] was −1.184 × 10^−5 A and the “cathodic peak potential Epc” value [2] was −0.490 V. The IC50 [3] was 80 µM, the “inhibition of vessel formation” value [4] was “profound inhibition of vessel formation” and the “angiogenic parameters (vessel size, vessel length, number of vessel branches)” value [4] was “reduction in all of these parameters compared to control”.

With CCCCCCCCCCCC[NH2+][Co-3]123([NH2+]CCCCCCCCCCCC)[O]c4ccccc4C=[N+]1c1ccccc1[N+]2=Cc1ccccc1[O]3.[O-][Cl+3]([O-])([O-])[O-] [Complex 2, trans-[Co(salophen)(DA)2](ClO4)] the “Stern–Volmer constant (Ksv)” value [1] was 0.6067, the “cathodic peak current ipc” value [2] was −3.622 × 10^−6 A and the “cathodic peak potential Epc” value [2] was −0.265 V. For the same molecule, the IC50 [3] was 65 µM, the “inhibition of vessel formation” value [4] was “profound inhibition of vessel formation” and the “angiogenic parameters (vessel size, vessel length, number of vessel branches)” value [4] was “reduction in all of these parameters compared to control”.
